Patent US8685726B2, “Small molecules supporting pluripotent cell growth and methods thereof” (Viacyte, Inc., priority 2009, dated 2014)

How the values were obtained:
hES cells = test: Low-density real-time cell index monitoring (RT-CES impedance reader); assay type: cell-based, human; settings: for time after plating at which cell index rises above background / expansion detectable: 50 μM each factor; for time after plating at which cell index rises above background / expansion detectable / lowest concentration that elicited an effect: StemPro hESC SFM; for lowest concentration that elicited an effect: titration
Method: FIG. 4. Titration of NE and ACh using the RT-CES impedance reader. 1000 hES cells/well were plated in StemPro® hESC SFM containing the indicated concentrations of small molecules (in μM). In such an assay, the timing of when the cell index rises is associated with the proportion of cells that survive and expand at low density.
FIG. 5. Combined effects of small molecules compound combinations in low cell density assays. (A) 1000 hES cells/well were plated in StemPro® hESC SFM containing small molecules at 50 μM (NE, ACh, Adenosine, GABA) or 10 μM (Y27632). The assay was carried out over 5 days using the RT-CES system.
FIG. 6. […] 1000 hES cells/well were plated in StemPro® hESC SFM containing Heregulin, IGF1 and Activin (HIA) and the indicated small molecules. […] Compounds were tested at 10 μM. The DMSO trace is an average of 8 wells. […] Compounds were tested at the indicated concentrations.
FIG. 7. […] 1000 hES cells/well were plated in StemPro® hESC SFM containing the indicated combinations of growth factors and small molecules. Heregulin (H), LR3-IGF1 (I), Activin (A).
FIG. 9. Low-density RT-CES assays of combinations of growth factors and neurotransmitters. 1000 hES cells/well were plated in StemPro® hESC SFM containing the indicated combinations of growth factors and small molecules. Heregulin (H), LR3-IGF1 (I), Activin (A). Small molecules were tested at 50 μM.
Furthermore, pluripotent cells can also be grown in 96-well culture devices that provide real-time measurements of impedance, which can be used to measure cell proliferation and viability using the RT-CES™ methods from ACEA Biosciences, Inc. (www (dot) aceabio (dot) com). Such an approach would enable a label-free identification and quantification of subtle or immediate effects on differentiable cells, as well as measurements of proliferation, apoptosis and changes to morphology, in real time.
To examine more closely the potency of individual neurotransmitters and determine if synergies exist between different factors, low-density assays were performed in real time using an impedance reader. The ACEA biosciences RT-CES system uses 96-well trays that contain embedded microsensors to monitor changes in electrical impedance, which is translated into a measure of cell index. Any overt alteration within a cell culture can be detected, including but not limited to cell proliferation, migration, cell spreading, apoptosis, differentiation and the like. […] Once an undifferentiated culture becomes confluent the cell index remains high, but tends to go down and up (scallop) between daily feedings. Conversely, differentiation is typically indicated by the appearance of distinctive patterns, such as peaks and troughs in the cell index, likely indicative of an epithelial-to-mesenchymal transition, flattening, cell migration, apoptosis or similar differentiation and growth related changes.
Human ES cells were plated at low density, 1000 cells/well, in RT-CES trays and cultured for 10 days (FIG. 4). Cells were plated directly in StemPro® hESC SFM containing carrier control (DMSO), NE, or ACh.

[1] = test system: hES cells (e.g., BGO2 cells); test: Low-density colony forming / colony counting assay (AP+ colonies); assay type: cell-based, human
Method: FIG. 2. Low density plating assay of hES cells (e.g., BGO2 cells). 10000 cells/well were plated in 6-well trays in StemPro® hESC SFM (Life Technologies) medium and stained with alkaline phosphatase (AP+) after 7 days. Y (Y27632), ACh (acetylcholine), NMDA (N-methyl-D-aspartic acid), NE ((−)-Norepinephrine), NE.Bit ((±)-Norepinephrine (+)-bitartrate). Compounds were added at 10 or 50 μM as indicated.
FIG. 3. Low density plating assay of hES cells. (A) 200-10000 cells/well were plated in […] trays in StemPro® hESC SFM medium, or StemPro® hESC SFM +50 μM NE, or +50 μM ACh, and stained with alkaline phosphatase (AP+) after 8 days. […] ACh (acetylcholine), NE ((±)-Norepinephrine (+)-bitartrate). […]
About 10^4 hES cells/well were plated in 6-well trays in StemPro® hESC SFM, in the presence of different compounds and cultured for about 7 days. The cultures were then fixed, stained for alkaline phosphatase activity and colonies were counted (FIG. 2). […] The (±)-Norepinephrine (+)-bitartrate salt was used for all subsequent experiments involving norepinephrine (NE) unless specifically described otherwise.
A similar colony counting experiment was performed using a range of cell densities (FIG. 3). […] See Robins and Schulz 2009, supra. […]

SMILES	effect on low-density survival/proliferation (hES cells; 1 μM, 1000 cells/well, 10 days)	survival and expansion at low density, single factors and two-factor combinations (hES cells; 50 μM (NE, ACh, Adenosine, GABA) or 10 μM (Y27632), 1000 cells/well, 5 days)	time after plating at which cell index rises above background / expansion detectable (hES cells; 1000 cells/well)	time to apparent confluence (hES cells; 70 μM, 1000 cells/well) [days]	time to apparent confluence (hES cells; 100 μM, 1000 cells/well) [days]	time at which increases in cell index were first detected (hES cells; 5, 10 and 50 μM, 1000 cells/well) [days]	survival/expansion on addition of neurotransmitter (hES cells; HAI or HI background, 1000 cells/well)	survival/expansion (hES cells; StemPro hESC SFM HI background)	rises in impedance / survival and expansion with neurotransmitters (hES cells; small molecules 50 μM, 1000 cells/well, growth factor combinations)	lowest concentration that elicited an effect (hES cells; 1000 cells/well) [µM]	colonies detected compared to StemPro hESC SFM medium alone ([1]; 50 μM, 200-10000 cells/well, 8 days)	fewest plated cells per well at which colonies were observed ([1]; 50 μM, 8 days) [plated cells]	support of colony formation at low density ([1]; 10^4 cells/well, StemPro hESC SFM, 7 days, compounds at 10 or 50 μM)
NCC(O)c1ccc(O)c(O)c1 (racemic) [NE, (±)-Norepinephrine (+)-bitartrate]	did not appear to affect low-density survival/proliferation	effective survival and expansion	about 3 days	~9	~10	~6.5	substantially improved survival/expansion	maximal survival/expansion	detected much earlier	5	More than four times as many colonies	1000	supported elevated colony formation
CC(=O)OCC[N+](C)(C)C [ACh, acetylcholine]			about 3 days							5		500	
